The values below come from paper PMC10112710 (Nature, 2022).

For test [1], the target named is T1, Drosophila Sestrin (Drosophila melanogaster, UniProt A0A0B4LGG4).
T1 sequence (A0A0B4LGG4 1-467): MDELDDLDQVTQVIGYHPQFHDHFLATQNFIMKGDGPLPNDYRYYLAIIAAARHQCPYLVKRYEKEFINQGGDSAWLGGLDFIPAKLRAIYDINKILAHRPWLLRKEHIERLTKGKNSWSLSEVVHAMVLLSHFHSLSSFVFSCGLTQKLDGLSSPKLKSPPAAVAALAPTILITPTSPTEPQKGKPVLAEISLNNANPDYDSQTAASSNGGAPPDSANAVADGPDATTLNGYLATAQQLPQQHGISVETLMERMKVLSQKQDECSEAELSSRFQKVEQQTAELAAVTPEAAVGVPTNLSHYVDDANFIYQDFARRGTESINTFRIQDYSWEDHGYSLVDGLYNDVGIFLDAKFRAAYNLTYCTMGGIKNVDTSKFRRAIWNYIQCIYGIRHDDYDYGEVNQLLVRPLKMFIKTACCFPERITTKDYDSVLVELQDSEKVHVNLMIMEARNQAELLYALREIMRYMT
Format: binding. The conditions noted are these: pH 7.4, on ice, 1 h; 150 mM KCl, 2.5 mM MgCl2, 0.1% Triton; Kd derived from IC50.

The target of test [2] is T2, Drosophila Sestrin (Drosophila melanogaster, UniProt A0A0B4LGG4, L431E).
T2 sequence (A0A0B4LGG4 1-467 L431E): T1 sequence (A0A0B4LGG4 1-467) with L431E
Put plainly: [3H]-leucine binding on immunopurified HA-tagged Sestrin. As to conditions: pH 7.4, on ice, 1 h; labelled compound; no binding detected.

Changes are numbered by the printed parent chain.

Broadly, the Kd is the free concentration of one partner at which half of the binding sites on the other are occupied at equilibrium, for simple one-to-one binding. Low readings indicate higher affinity, high ones lower affinity.

For the compound `CC(C)C[C@H](N)C(=O)O` [leucine], the Kd on Drosophila Sestrin [1] was around 100 µM. Moreover, the does not bind result at Drosophila Sestrin [2] is “fly Sestrin L431E does not bind leucine (Fig. 1b)”.
